Test results published in patent US20260078122A1, “INDAZOLE COMPOUNDS AS PKMYT1 KINASE INHIBITORS” (Hoffmann-La Roche Inc., priority 2023, published 2026).

Legend:
[1] = Human hepatocyte stability assay; type: in vitro ADME; settings: 1 μM compound, 1*10^6 cells/mL, 2-120 min
[2] = Human microsome stability assay; settings: 1 μM compound, 0.5 mg/mL liver microsomal protein, 1 mM NADPH, 37° C., 0-30 minutes
[3] = molecular target: T1, recombinant human Myt1 (full length PKMYT1) (Homo sapiens, UniProt Q99640); test: ADP-Glo assay (Myt1 kinase activity)
T1 sequence (Q99640 1-499): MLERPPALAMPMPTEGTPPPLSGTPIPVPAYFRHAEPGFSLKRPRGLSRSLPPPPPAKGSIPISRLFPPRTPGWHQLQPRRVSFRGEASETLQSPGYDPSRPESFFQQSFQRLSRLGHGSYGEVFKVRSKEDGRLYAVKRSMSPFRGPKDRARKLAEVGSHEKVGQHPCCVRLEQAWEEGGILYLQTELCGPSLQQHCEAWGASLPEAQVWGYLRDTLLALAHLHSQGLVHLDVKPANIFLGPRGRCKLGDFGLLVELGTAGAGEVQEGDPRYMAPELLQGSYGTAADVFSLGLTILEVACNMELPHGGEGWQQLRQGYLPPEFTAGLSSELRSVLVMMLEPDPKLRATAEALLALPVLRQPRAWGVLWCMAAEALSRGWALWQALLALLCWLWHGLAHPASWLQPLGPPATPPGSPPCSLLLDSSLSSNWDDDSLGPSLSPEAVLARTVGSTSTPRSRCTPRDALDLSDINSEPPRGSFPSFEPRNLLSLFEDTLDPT

SMILES | Clearance of Human hepatocyte (μL/min/10^6 cell) [1] [μL/min/10^6 cell] | Clearance of Human microsome [2] [mL/min/kg] | IC50 [3] [nM]
Nc1c(-c2ccc(F)c3[nH]ncc23)c2ncc(Cl)cc2[nH]c1=O [Example 001, 3-Amino-7-chloro-4-(7-fluoro-1H-indazol-4-yl)-1H-1,5-naphthyridin-2-one] | 2.1 |  | 
Cc1cnc2c(-c3ccc(F)c4[nH]ncc34)c(N)c(=O)[nH]c2c1 [Example 002, 3-Amino-4-(7-fluoro-1H-indazol-4-y1)-7-methyl-1H-1,5-naphthyridin-2-one] | 1.3 |  | 
Cc1cc2[nH]c(=O)c(N)c(-c3ccc(F)c4[nH]ncc34)c2nc1C [Example 017, 3-Amino-4-(7-fluoro-1H-indazol-4-yl)-6,7-dimethyl-1H-1,5-naphthyridin-2-one] | 1.6 |  | 
Cc1cnc2c(-c3ccc(F)c4[nH]ncc34)c(N)c(=O)[nH]c2c1C [Example 054, 3-Amino-4-(7-fluoro-1H-indazol-4-yl)-7,8-dimethyl-1H-1,5-naphthyridin-2-one] | <1 |  | 
Cc1cc2[nH]c(=O)c(N)c(-c3ccc(F)c4[nH]ncc34)c2nc1C#CC(C)(C)O [Example 070, 3-Amino-4-(7-fluoro-1H-indazol-4-yl)-6-(3-hydroxy-3-methyl-but-1-ynyl)-7-methyl-1H-1,5-naphthyridin-2-one] | 1.4 |  | 
Cc1c(Cl)cnc2c(-c3ccc(F)c4[nH]ncc34)c(N)c(=O)[nH]c12 [Example 099, 3-Amino-7-chloro-4-(7-fluoro-1H-indazol-4-yl)-8-methyl-1H-1,5-naphthyridin-2-one] | <1 | 6.15 | < 10
Cc1c(C2CC2)cnc2c(-c3ccc(F)c4[nH]ncc34)c(N)c(=O)[nH]c12 [Example 100, 3-Amino-7-cyclopropyl-4-(7-fluoro-1H-indazol-4-yl)-8-methyl-1H-1,5-naphthyridin-2-one] | <1 |  | 
[2H]C([2H])([2H])c1cnc2c(-c3ccc(F)c4[nH]ncc34)c(N)c(=O)[nH]c2c1C [Example 101, 3-Amino-4-(7-fluoro-1H-indazol-4-yl)-8-methyl-7-(trideuteriomethyl)-1H-1,5-naphthyridin-2-one] | <1 |  | 
Cc1c(CC(F)(F)F)cnc2c(-c3ccc(F)c4[nH]ncc34)c(N)c(=O)[nH]c12 [Example 133, 3-Amino-4-(7-fluoro-1H-indazol-4-yl)-8-methyl-7-(2,2,2-trifluoroethyl)-1H-1,5-naphthyridin-2-one] | 1.7 |  | < 10
COc1cnc2c(-c3ccc(F)c4[nH]ncc34)c(N)c(=O)[nH]c2c1C [Example 136, 3-Amino-4-(7-fluoro-1H-indazol-4-yl)-7-methoxy-8-methyl-1H-1,5-naphthyridin-2-one] | 1.4 | 6.15 | 17.3
Cc1c(S(C)(=O)=O)cnc2c(-c3ccc(F)c4[nH]ncc34)c(N)c(=O)[nH]c12 [Example 143, 3-Amino-4-(7-fluoro-1H-indazol-4-yl)-8-methyl-7-methylsulfonyl-1H-1,5-naphthyridin-2-one] |  | 6.15 | 11
Cc1cnc2c(-c3ccc(Cl)c4[nH]ncc34)c(N)c(=O)[nH]c2c1C [Example 146, 3-Amino-4-(7-chloro-1H-indazol-4-yl)-7,8-dimethyl-1H-1,5-naphthyridin-2-one] | 1.2 | 6.15 | < 10
Cc1nc(C#N)c2c(-c3ccc(F)c4[nH]ncc34)c(N)c(=O)[nH]c2c1C [Example 161, 3-Amino-4-(7-fluoro-1H-indazol-4-yl)-7,8-dimethyl-2-oxo-1H-1,6-naphthyridine-5-carbonitrile] |  | 6.15 | 15.5
Nc1c(-c2ccc(F)c3[nH]ncc23)c2c(Cl)nc(C3CC3)cc2[nH]c1=O [Example 163, 3-Amino-5-chloro-7-cyclopropyl-4-(7-fluoro-1H-indazol-4-yl)-1H-1,6-naphthyridin-2-one] | <1 |  | < 10
Cc1cnc(Cl)c2c(-c3ccc(F)c4[nH]ncc34)c(N)c(=O)[nH]c12 [Example 164, 3-Amino-5-chloro-4-(7-fluoro-1H-indazol-4-yl)-8-methyl-1H-1,6-naphthyridin-2-one] |  | 6.15 | < 10
Cc1nc(C2CC2)cc2[nH]c(=O)c(N)c(-c3ccc(F)c4[nH]ncc34)c12 [Example 166, 3-Amino-7-cyclopropyl-4-(7-fluoro-1H-indazol-4-yl)-5-methyl-1H-1,6-naphthyridin-2-one] |  | 6.15 | 14.7
N#Cc1nc(C2CC2)cc2[nH]c(=O)c(N)c(-c3ccc(F)c4[nH]ncc34)c12 [Example 167, 3-Amino-7-cyclopropyl-4-(7-fluoro-1H-indazol-4-yl)-2-oxo-1H-1,6-naphthyridine-5-carbonitrile] | <1 | 6.80 | 14.5
COc1ncc(C)c2[nH]c(=O)c(N)c(-c3ccc(F)c4[nH]ncc34)c12 [Example 172, 3-Amino-4-(7-fluoro-1H-indazol-4-yl)-5-methoxy-8-methyl-1H-1,6-naphthyridin-2-one] |  | 6.20 | 10.9
COc1cnc(C)c2[nH]c(=O)c(N)c(-c3ccc(F)c4[nH]ncc34)c12 [Example 173, 3-Amino-4-(7-fluoro-1H-indazol-4-yl)-5-methoxy-8-methyl-1H-1,7-naphthyridin-2-one] | <1 | 6.15 | 15.2
Cc1ncc(OC(C)C)c2c(-c3ccc(F)c4[nH]ncc34)c(N)c(=O)[nH]c12 [Example 182, 3-Amino-4-(7-fluoro-1H-indazol-4-yl)-5-isopropoxy-8-methyl-1H-1,7-naphthyridin-2-one] |  | 6.20 | 14.7
Cc1ncc(OCC(F)(F)F)c2c(-c3ccc(F)c4[nH]ncc34)c(N)c(=O)[nH]c12 [Example 183, 3-Amino-4-(7-fluoro-1H-indazol-4-yl)-8-methyl-5-(2,2,2-trifuoroethoxy)-1H-1,7-naphthyridin-2-one] | <1 | 6.20 | 13.4
CCOc1cnc(C)c2[nH]c(=O)c(N)c(-c3ccc(F)c4[nH]ncc34)c12 [Example 184, 3-Amino-5-ethoxy-4-(7-fluoro-1H-indazol-4-yl)-8-methyl-1H-1,7-naphthyridin-2-one] | 1.3 | 6.20 | < 10
Cc1ncc(OC(F)F)c2c(-c3ccc(F)c4[nH]ncc34)c(N)c(=O)[nH]c12 [Example 185, 3-Amino-5-(difluoromethoxy)-4-(7-fluoro-1H-indazol-4-yl)-8-methyl-1H-1,7-naphthyridin-2-one] |  | 6.15 | 11.4
